pIC50: −log10 of the molar value. Active and inactive are the calls of the source. The calls are words filed in the database; no cut-off is given here.
Assays:
A549 [1] = test: Induction of apoptosis in human A549 cells assessed as apoptotic cells upto 10 nM measured after 24 hrs by Annexin V-FITC/propidium iodide staining based flow cytometry; type: functional, cell-based; conditions: dose nM <=10, time 24.0 hrs
A549 [2] = test: Induction of apoptosis in human A549 cells assessed as increase in cleaved caspase-3 level incubated for 24 hrs by Western blot analysis; type: functional, cell-based; conditions: dose nM <=10, time 24.0 hrs
A549 [3] = test: Antiproliferative activity against cisplatin resistant human A549 cells assessed as reduction in cell growth after 48 hrs by MTT assay; type: functional, cell-based; conditions: A549, 48 h
A549 [4] = test: Induction of apoptosis in human A549 cells assessed as necrotic cells at 10 nM measured after 24 hrs by Annexin V-FITC/propidium iodide staining based flow cytometry (reference value: 0.508%); type: functional
[5] = (§1) Inhibition of porcine brain tubulin polymerization measured for 20 mins by spectrometric assay; type: tissue-based, Sus scrofa
Sus scrofa = organism: Sus scrofa; test: as §1; type: tissue-based
A549 [6] = test: Induction of apoptosis in human A549 cells assessed as early apoptotic cells at 5 nM measured after 24 hrs by Annexin V-FITC/propidium iodide staining based flow cytometry (reference value: 2.72%); type: functional
A549 [7] = test: Induction of apoptosis in human A549 cells assessed as late apoptotic cells at 10 nM measured after 24 hrs by Annexin V-FITC/propidium iodide staining based flow cytometry (reference value: 1.51%); type: functional
[8] = Antitumor activity against human A549 cells xenografted in BALB/c mouse assessed as tumor volume at 8 mg/kg, ip measured for every 2 days upto 30 days (reference value: 652.13 mm^3); type: functional; conditions: time 2 day
[9] = Antitumor activity against human A549 cells xenografted in BALB/c mouse assessed as tumor weight at 15 mg/kg, ip measured every 2 days upto 30 days (reference value: 0.563 g); type: functional; conditions: time 2 day
[10] = Antitumor activity against human A549 cells xenografted in BALB/c mouse assessed as tumor weight at 60 mg/kg, ip measured every 2 days upto 30 days (reference value: 0.563 g); type: functional; conditions: time 2 day
[11] = Antitumor activity against human A549 cells xenografted in BALB/c mouse assessed as tumor growth inhibition at 60 mg/kg, ip measured every 2 days upto 30 days relative to control; type: functional; set-up: scale not given: the % may be the effect or the level left; conditions: time 30 day
A549 [12] = test: Induction of apoptosis in human A549 cells assessed as necrotic cells at 2.5 nM measured after 24 hrs by Annexin V-FITC/propidium iodide staining based flow cytometry (reference value: 0.508%); type: functional
A549 [13] = test: Induction of apoptosis in human A549 cells assessed as late apoptotic cells at 2.5 nM measured after 24 hrs by Annexin V-FITC/propidium iodide staining based flow cytometry (reference value: 1.51%); type: functional
A549 [14] = test: Antiproliferative activity against human A549 cells assessed as reduction in cell growth after 48 hrs by MTT assay; type: functional, cell-based; conditions: A549, 48 h
A549 [15] = test: Induction of apoptosis in human A549 cells assessed as necrotic cells at 5 nM measured after 24 hrs by Annexin V-FITC/propidium iodide staining based flow cytometry (reference value: 0.508%); type: functional
HEK293 = test: Cytotoxicity against HEK293 cells assessed as reduction in cell growth after 48 hrs by MTT assay; type: cell-based; conditions: Homo sapiens, HEK293, 48 h
A549 [16] = test: Induction of cell cycle arrest in human A549 cells assessed as increase in p-cdc2 expression upto 10 nM incubated for 24 hrs by Western blot analysis; type: functional, cell-based; conditions: dose nM <=10, time 24.0 hrs
MCF7 = test: Antiproliferative activity against human MCF7 cells assessed as reduction in cell growth after 48 hrs by MTT assay; type: functional, cell-based; conditions: MCF7, 48 h
HT-29 = test: Antiproliferative activity against human HT-29 cells assessed as reduction in cell growth after 48 hrs by MTT assay; type: functional, cell-based; conditions: HT-29, 48 h
A2780 = test: Antiproliferative activity against paclitaxel-resistant human A2780 cells assessed as reduction in cell growth after 48 hrs by MTT assay; type: functional, cell-based; conditions: A2780, 48 h
[17] = Antitumor activity against human A549 cells xenografted in BALB/c mouse assessed as tumor growth inhibition at 8 mg/kg, ip measured every 2 days for every 2 days upto 30 days relative to control; type: functional; set-up: scale not given: the % may be the effect or the level left; conditions: time 2 day
[18] = Toxicity in BALB/c mouse xenografted with human A549 cells assessed as change in body weight at 15 mg/kg, ip measured after 30 days; type: organism-based; conditions: in vivo, 720 h, time 30 day
[19] = Antitumor activity against human A549 cells xenografted in BALB/c mouse assessed as tumor growth inhibition at 15 mg/kg, ip measured every 2 days upto 30 days relative to control; type: functional; set-up: scale not given: the % may be the effect or the level left; conditions: time 30 day
[20] = Antitumor activity against human A549 cells xenografted in BALB/c mouse assessed as tumor volume at 60 mg/kg, ip measured for every 2 days upto 30 days (reference value: 652.13 mm^3); type: functional; conditions: time 2 day
[21] = Toxicity in BALB/c mouse xenografted with human A549 cells assessed as change in body weight at 60 mg/kg, ip measured after 30 days; type: organism-based; conditions: in vivo, 720 h, time 30 day
A549 [22] = test: Induction of apoptosis in human A549 cells assessed as late apoptotic cells at 5 nM measured after 24 hrs by Annexin V-FITC/propidium iodide staining based flow cytometry (reference value: 1.51%); type: functional
A549 [23] = test: Induction of apoptosis in human A549 cells assessed as early apoptotic cells at 10 nM measured after 24 hrs by Annexin V-FITC/propidium iodide staining based flow cytometry (reference value: 2.72%); type: functional
[24] = Antitumor activity against human A549 cells xenografted in BALB/c mouse assessed as tumor weight at 8 mg/kg, ip measured every 2 days for every 2 days upto 30 days (reference value: 0.563 g); type: functional; conditions: time 2 day
[25] = Antitumor activity against human A549 cells xenografted in BALB/c mouse assessed as tumor volume at 15 mg/kg, ip measured for every 2 days upto 30 days (reference value: 652.13 mm^3); type: functional; conditions: time 2 day
Tubulin = test: Inhibition of tubulin polymerization in human A549 cells assessed as disruption of microtubule organization at 50 nM incubated for 6 hrs by immunofluorescent staining; type: cell-based
A549 [26] = test: Induction of apoptosis in human A549 cells assessed as increase in cleaved PARP level incubated for 24 hrs by Western blot analysis; type: functional, cell-based; conditions: dose nM <=10, time 24.0 hrs
A549 [27] = test: Induction of apoptosis in human A549 cells assessed as early apoptotic cells at 2.5 nM measured after 24 hrs by Annexin V-FITC/propidium iodide staining based flow cytometry (reference value: 2.72%); type: functional
A549 [28] = test: Induction of apoptosis in human A549 cells assessed as viable cells at 5 nM measured after 24 hrs by Annexin V-FITC/propidium iodide staining based flow cytometry (reference value: 95.3%); type: functional; conditions: read-out: Activity
A549 [29] = test: Induction of cell cycle arrest in human A549 cells assessed as inhibition of p-cdc2/cyclin B1 activity incubated for 24 hrs by Western blot analysis; type: functional, cell-based
A549 [30] = test: Induction of apoptosis in human A549 cells assessed as viable cells at 10 nM measured after 24 hrs by Annexin V-FITC/propidium iodide staining based flow cytometry (reference value: 95.3%); type: functional; conditions: read-out: Activity
A549 [31] = test: Induction of apoptosis in human A549 cells assessed as decrease in Bcl2 level upto 10 nM incubated for 24 hrs by Western blot analysis; type: functional, cell-based; conditions: dose nM <=10, time 24.0 hrs
A549 [32] = test: Induction of apoptosis in human A549 cells assessed as viable cells at 2.5 nM measured after 24 hrs by Annexin V-FITC/propidium iodide staining based flow cytometry (reference value: 95.3%); type: functional; conditions: read-out: Activity
A549 [33] = test: Induction of cell cycle arrest in human A549 cells assessed as accumulation at G2/M phase upto 20 nM incubated for 24 hrs by flow cytometry; type: functional, cell-based; conditions: dose nM <=20, time 24.0 hrs
HeLa = test: Antiproliferative activity against human HeLa cells assessed as reduction in cell growth after 48 hrs by MTT assay; type: functional, cell-based
A549 [34] = test: Induction of cell cycle arrest in human A549 cells assessed as accumulation at G2/M phase at 20 nM incubated for 24 hrs by flow cytometry relative to control; type: functional

For COc1cc(-c2nnc3n2N=C(c2ccc(C)cc2)CS3)cc(OC)c1OC, the Activity (A549 [1]) was “Dose-dependent effect”, the Activity (A549 [2]) was “Dose-dependent effect” and the pIC50 (A549 [3]) was 5.40. The Activity (A549 [4]) was 0.666%, the pIC50 [5] was 5.77 and the inhibition (Sus scrofa) was “Dose-dependent effect”. It also gave an Activity (A549 [6]) of 6.58%, an Activity (A549 [7]) of 13.1% and an Activity [8] of 264 mm3. For the same molecule, the Activity [9] was 0.397 g, the Activity [10] was 0.313 g and the Activity [11] was 44.4%. It also gave an Activity (A549 [12]) of 0.529%, an Activity (A549 [13]) of 5.36% and a pIC50 (A549 [14]) of 7.30. For the same molecule, the Activity (A549 [15]) was 0.694%, the pIC50 (HEK293) was < 4.00 and the Activity (A549 [16]) was “Dose-dependent effect”. For the same molecule, the pIC50 (MCF7) was 7.01, the pIC50 (HT-29) was 7.64 and the pIC50 (A2780) was 4.73. The Activity [17] was 58.4%, the Activity [18] was “Non-Toxic” and the Activity [19] was 29.5%. The Activity [20] was 354.12 mm3, the Activity [21] was “Non-Toxic” and the Activity (A549 [22]) was 9.97%. The Activity (A549 [23]) was 8.66%, the Activity [24] was 0.234 g and the Activity [25] was 449.88 mm3. The IC50 (Tubulin) was “Active”, the Activity (A549 [26]) was “Dose-dependent effect” and the Activity (A549 [27]) was 5.36%. For the same molecule, the viability at 0.005 µM (A549 [28]) was 82.8%, the Activity (A549 [29]) was “Active” and the viability at 0.01 µM (A549 [30]) was 77.6%. For the same molecule, the Activity (A549 [31]) was “Active”, the viability at 0.0025 µM (A549 [32]) was 88.8% and the Activity (A549 [33]) was “Dose-dependent effect”. It also gave a pIC50 (HeLa) of 8.40 and an Activity (A549 [34]) of 91.56%.

Reference: ChEMBL document CHEMBL4706609, “Development of triazolothiadiazine derivatives as highly potent tubulin polymerization inhibitors: Structure-activity relationship, in vitro and in vivo study” (Eur J Med Chem, 2020)
